The numbers were not newly measured in patent publication US5503831A, “Lipase inhibitor derived from a defatted rice germ” (Yakurigaku Chuo Kenkyusho, priority 1993, dated 1996), which cites them from elsewhere.

The data set deals with lipase. The conditions noted are these: in the presence of bile acids (sodium taurocholic acid for wheat germ protein), emulsified lipids.

Take β-lactoglobulin: the “Action on lipase in the presence of bile acids” value is “does not exert such an action”.

Turning to serum albumin, the “Action on lipase in the presence of bile acids” value is recorded as “does not exert such an action”.
